How the values were obtained:
HPV16 E7 protein = biological target: T1, HPV16 E7 protein (Human papillomavirus type 16, UniProt P03129); type: cell-based; settings: CaSki cells; for % Dad: adjusted degradation, CHX steady state set to 100% degradation
T1 construct: endogenous in cells; host or cells: CaSki cells (HPV16-positive cervical carcinoma)
Procedure: For intracellular antibody labeling, 0.5×10^6 cells are washed once with 1 ml ice-cold PBS. Cells are centrifuged at 350×g for 5 minutes at 4° C. and then fixed in 1% paraformaldehyde (1 ml/10^6 cells) for 20 minutes at 4° C. Cells are washed with 1 ml ice-cold PBS and centrifuged at 350×g for 5 minutes at 4° C. To permeabilize cells, 100% ice-cold methanol (1 ml/10^6 cells) is added to the cells and incubated for 20 minutes at 4° C. followed by centrifugation at 350×g for 5 minutes at 4° C. Cells are washed with 1 ml ice-cold PBS, centrifuged at 350×g for 5 minutes at 4° C. and resuspended in 0.1% saponin+2% FBS in PBS (ice-cold). Cells are left for 20-30 minutes at room temperature to reduce the background signal and then centrifuged at 350×g for 5 minutes at 4° C. The primary antibody (mAb_HPV16E7-1 (VS13004); concentration 1 μg/μl) is diluted in 0.1% saponin+2% FBS (dilution 0.25 μg/50 μl of incubation buffer per 1×10^6 cells (5 ng/μl)). Cells are incubated with primary antibody for 30 minutes at room temperature, washed with 0.1% saponin+2% FBS and centrifuged at 350×g for 5 minutes at 4° C. The secondary antibody (FITC conjugated goat anti-mouse IgG1-IgM, BD, cat. #555988) is diluted in 0.1% saponin+2% FBS (dilution 1:50). Cells are incubated with secondary antibody for 30 minutes at room temperature, washed once with 0.1% saponin+2% FBS, once with PBS and centrifuged at 350×g for 5 minutes at 4° C.
Cells are resuspended in 700 μl PBS prior to CF analysis with a Beckman Coulter FC 500 MPL, (excitation laser 488 nm). Data analysis is done using the Beckman Coulter software packages MXP for acquisition and CXP for data analysis which includes MFI calculation. Detection of HPV-E7 protein expression is based on morphology back-gating of FL1 histogram (logarithmic scale) with gating for dot plot FS (Forward Scatter) log/SS (Sideward Scatter) log and gating for histograms SS log.
In order to define the level of E7 protein expression and to study the extent of E7 protein steady state level reduction in E7 expressing cells in the presence of various compounds, FC analysis is implemented using the intracellular antibody labeling procedure for monoclonal antibodies to HPV E7. E7 signal intensities are analyzed from the obtained FL1 histograms at logarithmic scale. The FL1 single histogram graph represents the variation in the mean fluorescence intensity (MFI) channel for cells treated with selected compounds compared to cells not incubated with primary antibodies but incubated with secondary, which allows to test for auto-fluorescence, and non-compound treated cells as controls. Non-primary antibody-stained cells are used to set the acquisition parameters to zero. Decrease of the mean fluorescence intensity channel corresponds to a decrease in the expression of HPV16 E7 protein. Degradation of E7 in cells is calculated as percent (%) reduction in MFI(x-Me) using the following formulas: % Drel=(T−C)/T*100; i) relative degradation: % Dad=(T−C)/(T−CHX)*100; ii) adjusted degradation: • Drel=relative degradation, • Dad=adjusted degradation assuming CHX % Drel=100; • T=MFI of non-treated cells; • C=MFI of compound treated cells; • CH=MFI of cycloheximide (CHX) treated cells;
For comparison within one experiment i) the % relative degradation (Drel) is sufficient, whereas for comparison between two or more experiments ii) the adjusted degradation (Dad) is used and CHX steady state is set to a 100% degradation parameter.
1×10^6 freshly seeded CaSki cells (ATCC CRL-7915), are grown in 10 cm diameter cell culture dishes in RPMI1640, 10% FCS medium at 37° C. 5% CO2 overnight and then incubated in the presence of 10 μM Cycloheximide (CHX) 10 μM OC246 or with vehicle alone for four hours at 37° C. 5% CO2. Following this E7 protein is assessed by cytofluorimetric analysis using intracellular HPV16 E7 antibody labeling. […]

[1] = tested on: cell signaling molecules (4E-BP1, p70 S6 kinase, Akt, PTPN14, p53, PD-L1); assay: Western blot of cell signaling molecules in CaSki cells
[2] = Pharmacokinetics of VSP034 and VSP035 after oral administration of a liposomal formulation; type: in vivo, female Sprague-Dawley rats; settings: for AUC(0-inf) / Cmax / MRT inf / Tmax / half-life: female, Sprague-Dawley; for AUC(0-inf): AUC0-inf; for MRT inf: MRT0-inf
Procedure: The pharmacokinetic parameters of VSP034 and VSP035 encapsulated as liposomal formulation were assessed after the administration of a single 100 mg/kg dose by oral gavage to 6 female Sprague-Dawley rats weighting 250 grams (+25 g). The animals were randomized into two experimental groups (Groups 1 and 2), each composed of 3 rats. Rats belonging to group 1 were administered with VSP034 and rats belonging to group 2 were administered with VSP035. Blood was collected at baseline and 15 min, 30 min, 1, 2, 4, 6, 8, and 24 hours after the oral gavage. The rats were sacrificed 24 hours after the dosing. Blood was collected at each timepoint from the caudal vein, with the exception of the last collection (24 hours), which was performed by intracardiac puncture at the moment of sacrifice under isoflurane anesthesia. The animals were weighted immediately before the dosing to assess the proper dose and carefully monitored during the experiment. They were kept in standard housing conditions, meeting the legal requirements for the correct housing of rodents for a period not exceeding the maximum experimental endpoints. Ad libitum access to water and food was allowed. […] Humane endpoints have not been reached. The pharmacokinetic analysis was performed using Microsoft Excel plug-in PK Solver. Pharmacokinetic parameters of two compounds are compared with the software GraphPad Prism ver. 8.0 by Student's t test for unpaired data. A p value <0.05 is considered statistically significant.
Analytical method: Compound analysis was performed following the bioanalytical method as in Test 13. In this study, carbamazepine was used as an internal standard.
Pharmacokinetic analysis: A pharmacokinetic analysis of VSP034 and VSP035 was performed using the Excel plug-in 2.0 PK Solver. The results have been fitted according to a non-compartmental modelling following extravascular administration. Concentration-vs-time curves for VSP034 and VSP035.
The main pharmacokinetic parameters (half-life, t1/2; time to maximum plasma concentration, Tmax; maximum plasma concentration, Cmax, AUC Extrapolated to Infinity, AUC0-inf; mean residence time, MRT; Apparent Volume of Distribution During Terminal Phase, Vz/F; and apparent oral clearance, CL/F) were calculated from the coefficients and exponents of the best-fits by using standard formulae.

[3] = rat, in vivo, po, 100 mg/kg, Mean
[4] = rat, in vivo, po, 100 mg/kg, Median

T1 sequence (P03129 whole entry): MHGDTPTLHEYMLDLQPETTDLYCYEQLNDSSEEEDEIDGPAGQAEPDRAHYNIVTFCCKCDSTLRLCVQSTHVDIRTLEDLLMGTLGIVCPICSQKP

CN1CCC(CN2C(=O)c3ccccc3[C@@H](C(=O)Nc3cccc(N4CCN(C)CC4)c3)[C@@H]2c2ccc(C(F)(F)F)cc2)CC1 (racemic) [OC974, (3R,4R)- and (3S,4S)-N-[3-(4-methylpiperazin-1-yl)phenyl]-2-[(1-methylpiperidin-4-yl)methyl]-1-oxo-3-[4-(trifluoromethyl)phenyl]-3,4-dihydroisoquinoline-4-carboxamide]
% Dad (HPV16 E7 protein): 68%

CN1CCC(CN2C(=O)c3ccccc3[C@H](C(=O)Nc3cccc(N4CCN(C)CC4)c3)[C@H]2c2ccc(C(F)(F)F)cc2)CC1 [VSP035, (3S,4S)-N-[3-(4-methylpiperazin-1-yl)phenyl]-2-[(1-methylpiperidin-4-yl)methyl]-1-oxo-3-[4-(trifluoromethyl)phenyl]-1,2,3,4-tetrahydroisoquinoline-4-carboxamide]
PDL-1 regulation ([1]; CaSki, 4 and 8 hours, dose dependent): valid pdl-1 destabilizer
p(S473)Akt, Sting and Irf-3 levels ([1]; CaSki, 10 μm VSP035 time course): do not appear to be influenced
Ptpn14 and p53 levels ([1]; CaSki, 10 μm, 24 h time point): increase in Ptpn14 and p53
Phosphorylation of 4E-BP1 on Ser65 and the p70S6 kinase on Thr389 ([1]; CaSki, 6 h, order 10 μM VSP035, Torin 1, Torin 2, rapamycin, 5 μM VSP035, CGP 57380): inhibited or strongly reduced
4E-BP1 phosphorylation state ([1]; CaSki, 6 h treatment): dose dependent hypophosphorylation of 4E-BP1
AUC(0-inf) [2, 3]: 2230 ng·h/mL
AUC(0-inf) [2, 4]: 1480 ng·h/mL
Cmax [2, 3]: 246 ng/mL
Cmax [2, 4]: 277 ng/mL
MRT inf [2, 3]: 6.83 h
MRT inf [2, 4]: 6.59 h
Tmax [2, 3]: 2.42 h
Tmax [2, 4]: 1 h
half-life ([2]; rat, in vivo, po, 100 mg/kg, t1/2, Mean): 4.43 h
half-life ([2]; rat, in vivo, po, 100 mg/kg, t1/2, Median): 3.57 h
Vz/F, Mean ([2]; rat, in vivo, po, 100 mg/kg): 0.291 L/g
Vz/F, Median ([2]; rat, in vivo, po, 100 mg/kg): 0.278 L/g
condition of the rats after administration of the liposomal formulation ([2]; single 100 mg/kg oral gavage, observed 24 hours): did not show any sign of suffering or abnormal behavior
AUC relative to that of VSP034 ([2]; single 100 mg/kg oral, significantly higher): 4 fold

Cc1ccc(CN2C(=O)c3ccccc3[C@H](C(=O)Nc3cccc(N4CCN(C)CC4)c3)[C@@H]2c2ccc(C(F)(F)F)cc2)cc1 [OC246, N-[3-(4-methylpiperazin-1-yl)phenyl]-2-[(4-methylphenyl)methyl]-1-oxo-3-[4-(trifluoromethyl)phenyl]-1,2,3,4-tetrahydroisoquinoline-4-carboxamide]
signaling of phosphor-Akt S473 ([1]; 10 μM, 4 hours, CaSki and U2OS cells): does not inhibit
% Drel (relative degradation) (HPV16 E7 protein; 10 μM, four hours): 43.79%
% Dab (adjusted degradation) (HPV16 E7 protein; 10 μM, four hours, CHX set to 100): 55.59%
MFI (mean fluorescence intensity) of E7 signal (HPV16 E7 protein; 10 μM, four hours, vehicle T 8.06): 4.53
% Dad (HPV16 E7 protein): 56%
